Test results taken from ChEMBL document CHEMBL1782001, “Discovery of selective PDE4B inhibitors” (Bioorg Med Chem Lett, 2009).

Experiments:
[1] = target: 3',5'-cyclic-AMP phosphodiesterase 4D (Homo sapiens, UniProt Q08499); assay: Inhibition of human PDE4D3 incubated for 10 mins using cAMP and [3H]cAMP substrates
[2] = target: 3',5'-cyclic-AMP phosphodiesterase 4B (Homo sapiens, UniProt Q07343); assay: Inhibition of human PDE4B1 incubated for 10 mins using cAMP and [3H]cAMP substrates
[3] = organism: Homo sapiens; assay: Selectivity ratio, ratio of IC50 for human PDE4D3 to IC50 for human PDE4B1
[4] = AUC (0 to infinity) in ferret at 2 mg/kg, po; type: ADME, organism-based, Mustela putorius furo; design: time infinity, dose 2 mg/kg, route oral; conditions: plasma
[5] = target: Cytochrome P450 3A4 (Homo sapiens, UniProt P08684); assay: Inhibition of CYP3A4; type: ADME
[6] = target: Cytochrome P450 2D6 (Homo sapiens, UniProt P10635); assay: Inhibition of CYP2D6; type: ADME
[7] = target: Cytochrome P450 2C9 (Homo sapiens, UniProt P11712); assay: Inhibition of CYP2C9; type: ADME
[8] = Oral bioavailability in mouse; type: ADME, organism-based; conditions: in vivo
[9] = AUC (0 to infinity) in mouse at 2 mg/kg, po; type: ADME, organism-based; design: time infinity, dose 2 mg/kg, route oral; conditions: plasma
[10] = Cmax in mouse at 2 mg/kg, po; type: ADME, organism-based; design: dose 2 mg/kg, route oral; conditions: in vivo
[11] = target: T1, Cytochrome P450 1A2 (Homo sapiens, UniProt P05177); assay: Inhibition of CYP1A2; type: ADME
T1 sequence (P05177 whole entry): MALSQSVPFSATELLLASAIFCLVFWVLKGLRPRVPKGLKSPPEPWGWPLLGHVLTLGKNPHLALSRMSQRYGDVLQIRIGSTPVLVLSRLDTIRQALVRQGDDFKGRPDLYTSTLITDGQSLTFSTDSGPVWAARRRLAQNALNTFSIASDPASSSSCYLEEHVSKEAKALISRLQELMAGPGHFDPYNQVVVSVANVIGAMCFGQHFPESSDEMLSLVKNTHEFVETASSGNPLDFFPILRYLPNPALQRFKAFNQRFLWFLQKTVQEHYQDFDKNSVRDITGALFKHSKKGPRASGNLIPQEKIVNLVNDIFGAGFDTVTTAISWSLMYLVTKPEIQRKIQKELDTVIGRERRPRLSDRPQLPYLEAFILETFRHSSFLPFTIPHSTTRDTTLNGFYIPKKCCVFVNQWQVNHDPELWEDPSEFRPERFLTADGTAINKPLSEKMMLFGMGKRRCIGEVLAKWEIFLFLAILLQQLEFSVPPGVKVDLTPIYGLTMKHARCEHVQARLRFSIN

[12] = Cmax in ferret at 2 mg/kg, po; type: ADME, organism-based, Mustela putorius furo; design: dose 2 mg/kg, route oral; conditions: in vivo
[13] = Inhibition of PDE1
[14] = Inhibition of PDE6
[15] = target: cGMP-specific 3',5'-cyclic phosphodiesterase (Homo sapiens, UniProt O76074); assay: Inhibition of PDE5
[16] = Inhibition of PDE3
[17] = tested on: Mus musculus; assay: Inhibition of LPS-induced TNFalpha production in po dosed mouse; type: functional; conditions: read-out: ID50 (the source's name)
[18] = tested on: Mustela putorius furo; assay: Toxicity in ferret assessed as induction of emesis at 100 mg/kg, po measured 6 hrs post dose; type: organism-based; design: dose 100 mg/kg, route oral; conditions: in vivo
[19] = tested on: Mustela putorius furo; assay: Inhibition of […] in ferret assessed as inhibition of LPS-induced change in number of neutrophils in lung lavage at 12.5 mg/kg, po; type: functional
[20] = tested on: Mustela putorius furo; assay: Toxicity in ferret assessed as induction of emesis at 200 mg/kg, po measured 6 hrs post dose; type: organism-based; design: dose 200 mg/kg, route oral; conditions: in vivo
[21] = tested on: Mustela putorius furo; assay: Inhibition of […] in ferret assessed as inhibition of LPS-induced change in number of neutrophils in lung lavage at 25 mg/kg, po; type: functional
[22] = tested on: Mustela putorius furo; assay: Toxicity in ferret assessed as induction of emesis at 10 mg/kg, po measured 6 hrs post dose; type: organism-based; design: dose 10 mg/kg, route oral; conditions: in vivo
[23] = tested on: Mustela putorius furo; assay: Toxicity in ferret assessed as induction of emesis at 0.3 mg/kg, po measured 6 hrs post dose; type: organism-based; design: dose 0.3 mg/kg, route oral; conditions: in vivo
[24] = tested on: Mustela putorius furo; assay: Toxicity in ferret assessed as induction of emesis at 1 mg/kg, po measured 6 hrs post dose; type: organism-based; design: dose 1 mg/kg, route oral; conditions: in vivo
[25] = tested on: Mustela putorius furo; assay: Inhibition of […] in ferret assessed as inhibition of LPS-induced change in number of neutrophils in lung lavage at 10 mg/kg, po; type: functional

Sequence of 3',5'-cyclic-AMP phosphodiesterase 4B (Q07343 whole entry): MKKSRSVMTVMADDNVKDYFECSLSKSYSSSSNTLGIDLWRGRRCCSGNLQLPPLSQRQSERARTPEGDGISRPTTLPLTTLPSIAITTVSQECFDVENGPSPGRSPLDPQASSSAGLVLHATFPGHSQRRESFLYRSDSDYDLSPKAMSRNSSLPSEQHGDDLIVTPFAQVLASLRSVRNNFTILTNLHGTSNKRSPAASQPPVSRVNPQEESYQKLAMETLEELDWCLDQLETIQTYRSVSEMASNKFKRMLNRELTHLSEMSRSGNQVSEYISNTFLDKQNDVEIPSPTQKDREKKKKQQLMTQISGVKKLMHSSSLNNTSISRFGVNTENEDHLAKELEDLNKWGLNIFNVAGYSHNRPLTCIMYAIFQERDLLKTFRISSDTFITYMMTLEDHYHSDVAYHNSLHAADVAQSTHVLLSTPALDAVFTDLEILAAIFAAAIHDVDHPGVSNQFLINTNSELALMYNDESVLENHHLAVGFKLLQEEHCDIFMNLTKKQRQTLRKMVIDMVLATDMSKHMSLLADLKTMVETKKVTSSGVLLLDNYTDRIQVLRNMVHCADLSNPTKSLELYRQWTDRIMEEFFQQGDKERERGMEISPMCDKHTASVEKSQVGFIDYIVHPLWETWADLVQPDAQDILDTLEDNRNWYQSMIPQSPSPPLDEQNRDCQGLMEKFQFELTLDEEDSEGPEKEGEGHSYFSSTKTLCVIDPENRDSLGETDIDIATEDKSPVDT
Sequence of 3',5'-cyclic-AMP phosphodiesterase 4D (Q08499 whole entry): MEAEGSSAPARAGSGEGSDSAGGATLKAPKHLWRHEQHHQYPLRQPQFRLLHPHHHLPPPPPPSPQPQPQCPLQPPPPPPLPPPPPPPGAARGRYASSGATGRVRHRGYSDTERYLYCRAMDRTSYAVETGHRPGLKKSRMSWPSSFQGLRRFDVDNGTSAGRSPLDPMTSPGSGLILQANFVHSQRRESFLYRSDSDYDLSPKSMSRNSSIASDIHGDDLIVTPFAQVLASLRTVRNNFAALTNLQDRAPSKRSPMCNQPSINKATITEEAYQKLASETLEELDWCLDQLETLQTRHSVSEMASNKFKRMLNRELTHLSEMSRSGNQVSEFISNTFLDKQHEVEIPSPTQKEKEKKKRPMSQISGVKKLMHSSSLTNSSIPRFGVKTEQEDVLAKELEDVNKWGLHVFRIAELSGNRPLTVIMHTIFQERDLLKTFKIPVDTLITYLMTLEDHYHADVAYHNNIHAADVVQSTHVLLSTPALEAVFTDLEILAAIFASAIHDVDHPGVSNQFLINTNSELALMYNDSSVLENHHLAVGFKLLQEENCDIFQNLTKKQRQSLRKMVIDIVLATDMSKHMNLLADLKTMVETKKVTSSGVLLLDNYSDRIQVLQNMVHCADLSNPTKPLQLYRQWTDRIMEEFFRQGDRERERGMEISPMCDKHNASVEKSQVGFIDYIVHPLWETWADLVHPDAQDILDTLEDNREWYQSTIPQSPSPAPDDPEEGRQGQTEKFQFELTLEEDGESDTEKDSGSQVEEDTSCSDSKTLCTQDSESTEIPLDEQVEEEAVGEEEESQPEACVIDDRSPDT
Sequence of Cytochrome P450 3A4 (P08684 whole entry): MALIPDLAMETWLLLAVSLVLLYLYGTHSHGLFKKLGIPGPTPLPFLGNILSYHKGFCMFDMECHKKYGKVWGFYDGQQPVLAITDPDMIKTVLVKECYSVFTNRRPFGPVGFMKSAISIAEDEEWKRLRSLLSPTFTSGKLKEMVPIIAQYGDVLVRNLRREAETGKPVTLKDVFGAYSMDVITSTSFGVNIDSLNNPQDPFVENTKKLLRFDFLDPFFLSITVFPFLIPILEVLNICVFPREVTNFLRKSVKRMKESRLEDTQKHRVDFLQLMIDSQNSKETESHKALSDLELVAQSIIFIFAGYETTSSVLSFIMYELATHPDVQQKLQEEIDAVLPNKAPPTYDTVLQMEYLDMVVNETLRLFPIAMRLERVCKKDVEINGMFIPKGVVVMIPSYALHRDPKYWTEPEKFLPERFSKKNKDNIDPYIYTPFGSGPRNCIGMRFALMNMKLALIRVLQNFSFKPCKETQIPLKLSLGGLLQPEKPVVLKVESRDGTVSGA
Sequence of Cytochrome P450 2C9 (P11712 whole entry): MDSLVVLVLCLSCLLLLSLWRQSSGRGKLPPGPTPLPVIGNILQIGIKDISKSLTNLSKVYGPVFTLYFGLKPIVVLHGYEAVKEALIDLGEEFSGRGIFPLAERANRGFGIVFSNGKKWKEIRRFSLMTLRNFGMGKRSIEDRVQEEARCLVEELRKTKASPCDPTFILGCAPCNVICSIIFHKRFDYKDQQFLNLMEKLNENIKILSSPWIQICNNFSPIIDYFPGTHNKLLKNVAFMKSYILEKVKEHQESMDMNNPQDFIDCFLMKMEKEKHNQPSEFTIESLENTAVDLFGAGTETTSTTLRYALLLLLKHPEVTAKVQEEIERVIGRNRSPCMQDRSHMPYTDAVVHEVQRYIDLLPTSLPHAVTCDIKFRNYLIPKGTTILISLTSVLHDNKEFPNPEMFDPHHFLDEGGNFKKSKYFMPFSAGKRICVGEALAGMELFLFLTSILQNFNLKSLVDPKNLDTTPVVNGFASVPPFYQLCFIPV
Sequence of Cytochrome P450 2D6 (P10635 whole entry): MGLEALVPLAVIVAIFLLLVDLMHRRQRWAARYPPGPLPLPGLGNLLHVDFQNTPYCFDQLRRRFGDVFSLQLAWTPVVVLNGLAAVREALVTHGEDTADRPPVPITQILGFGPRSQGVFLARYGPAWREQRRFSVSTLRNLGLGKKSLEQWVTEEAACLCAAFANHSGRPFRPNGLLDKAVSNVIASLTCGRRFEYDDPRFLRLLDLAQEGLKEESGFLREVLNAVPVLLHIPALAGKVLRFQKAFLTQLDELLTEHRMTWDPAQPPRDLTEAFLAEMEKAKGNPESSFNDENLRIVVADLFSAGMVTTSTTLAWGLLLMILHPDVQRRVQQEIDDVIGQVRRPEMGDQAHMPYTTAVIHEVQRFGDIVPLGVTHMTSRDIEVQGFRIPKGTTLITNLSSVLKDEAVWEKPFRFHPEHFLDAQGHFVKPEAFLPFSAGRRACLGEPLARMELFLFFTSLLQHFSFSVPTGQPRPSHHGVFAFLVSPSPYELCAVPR

IC50 [1] [nM]	IC50 [2] [nM]	Ratio IC50 [3]	SMILES	also measured
1500	210	6.9	C=CCc1c(C)nc(-c2cccc(C)c2)nc1Nc1ccc(C(=O)O)cc1	–
–	> 1000	–	C=CCc1c(Nc2ccc(C(=O)O)cc2)nc(-c2ccccc2)nc1C(C)C	–
2000	220	8.9	C=CCc1c(C)nc(-c2ccc(OC)cc2)nc1Nc1ccc(C(=O)O)cc1	–
1900	190	9.7	C=CCc1c(C)nc(-c2ccccc2)nc1Nc1ccc(C(=O)O)cc1	–
4800	600	8	C=CCc1c(C)nc(-c2ccc(OC)cc2)nc1Nc1ccc(CC(=O)O)cc1	–
3100	15	205	CCc1c(C)nc(-c2ccc(F)s2)nc1Nc1ccc(CC(=O)O)cc1F	AUC(0-inf) [4]: 341000 ng·h/mL; IC50 [5]: > 10000 nM; IC50 [6]: > 10000 nM; IC50 [7]: > 10000 nM; bioavailability [8]: 73%; AUC(0-inf) [9]: 21900 ng·h/mL; Cmax [10]: 10900 ng/mL; IC50 [11]: > 10000 nM; Cmax [12]: 14800 ng/mL
760	78	9.8	C=CCc1c(C)nc(-c2ccc(OC)s2)nc1Nc1ccc(C(=O)O)cc1	–
15000	3700	4.1	C=CCc1c(C)nc(-c2ccccn2)nc1Nc1ccc(C(=O)O)cc1	–
1500	120	12	Cc1nc(-c2ccccc2)nc(Nc2ccc(C(=O)O)cc2)c1C#N	–
1600	19	87	CCc1c(C)nc(-c2ccc(Br)s2)nc1Nc1ccc(CC(=O)O)cc1	–
8800	320	28	C=CCc1c(C)nc(-c2ccc(C)s2)nc1Nc1ccc(CC(=O)O)cc1	–
> 10000	1800	–	C=CCc1c(C)nc(-c2ccccc2)nc1Nc1ccc(CC(=O)O)cc1	–
1700	15	114	CCc1c(C)nc(-c2ccc(Cl)s2)nc1Nc1ccc(CC(=O)O)cc1	AUC(0-inf) [4]: 33500 ng·h/mL; IC50 [5]: > 10000 nM; IC50 [13]: > 2000 nM; IC50 [14]: > 2000 nM; IC50 [15]: > 2000 nM; IC50 [6]: > 10000 nM; IC50 [7]: > 10000 nM; IC50 [16]: > 2000 nM; bioavailability [8]: 85%; ED50 [17]: 14 mg/kg; Activity [18]: Non-toxic; AUC(0-inf) [9]: 52300 ng·h/mL; Cmax [10]: 8700 ng/mL; inhibition in vivo at 12.5 mg/kg [19]: 44%; Activity [20]: Toxic; inhibition in vivo at 25 mg/kg [21]: 46%; IC50 [11]: > 10000 nM; Cmax [12]: 4500 ng/mL
1300	150	8.6	C=CCc1c(C)nc(-c2ccc(C)s2)nc1Nc1ccc(C(=O)O)cc1	–
1500	34	43	CCc1c(C)nc(-c2ccc(SC)s2)nc1Nc1ccc(CC(=O)O)cc1	–
–	–	–	COc1ccc([C@]2(C#N)CC[C@@H](C(=O)O)CC2)cc1OC1CCCC1 [CILOMILAST]	Activity [22]: Toxic; ED50 [17]: 2.2 mg/kg; Activity [23]: Non-toxic; Activity [24]: Toxic; inhibition in vivo at 10 mg/kg [25]: 35%
3000	860	3.5	C=CCc1c(C)nc(-c2cnccn2)nc1Nc1ccc(C(=O)O)cc1	–
5300	190	29	C=CCc1c(C)nc(-c2ccc(OC)s2)nc1Nc1ccc(CC(=O)O)cc1	–

IC50 [1] [nM]	IC50 [2] [nM]	Ratio IC50 [3]	SMILES	also measured
82	34	2.4	C=CCc1c(CC)nc(-c2ccccc2)nc1Nc1ccc(C(=O)O)cc1	–
2400	690	3.4	C=CCc1c(CCC)nc(-c2ccccc2)nc1Nc1ccc(C(=O)O)cc1	–
2900	6.8	420	CCc1c(C)nc(-c2cc(Br)c(C)s2)nc1Nc1ccc(CC(=O)O)cc1	–
990	68	15	C=CCc1c(C)nc(-c2ccsc2)nc1Nc1ccc(C(=O)O)cc1	–
9900	1200	8	C=CCc1c(C)nc(-c2cccc(C)c2)nc1Nc1ccc(CC(=O)O)cc1	–
2800	220	13	C=CCc1c(C)nc(-c2ccc(C)cc2)nc1Nc1ccc(C(=O)O)cc1	–
3400	430	7.9	Cc1nc(-c2ccccc2)nc(Nc2ccc(C(=O)O)cc2)c1C	–
–	> 1000	–	Cc1nc(-c2ccccc2)nc(Nc2ccc(C(=O)O)cc2)c1C(C)C	–
–	> 1000	–	Cc1nc(-c2ccccc2)nc(Nc2ccc(C(=O)O)cc2)c1CN	–
11000	940	12	C=CCc1c(C)nc(-c2ccc(C)cc2)nc1Nc1ccc(CC(=O)O)cc1	–
1300	120	11	C=CCc1c(C)nc(-c2cccs2)nc1Nc1ccc(C(=O)O)cc1	–
1500	300	5.2	Cc1nc(-c2ccccc2)nc(Nc2ccc(C(=O)O)cc2)c1C=O	–
2100	140	15	CCc1c(C)nc(-c2ccccc2)nc1Nc1ccc(C(=O)O)cc1	–
7600	1300	5.6	CCCc1c(C)nc(-c2ccccc2)nc1Nc1ccc(C(=O)O)cc1	–
–	> 1000	–	Cc1nc(-c2ccccc2)nc(Nc2ccc(C(=O)O)cc2)c1Cc1ccccc1	–
–	> 1000	–	CCCCc1c(C)nc(-c2ccccc2)nc1Nc1ccc(C(=O)O)cc1	–
12000	2800	4.2	C=CCc1c(C)nc(-c2csc(C)n2)nc1Nc1ccc(C(=O)O)cc1	–
8000	540	15	Cc1nc(-c2ccccc2)nc(Nc2ccc(C(=O)O)cc2)c1CO	–
